Legend:
Assay type in all cases: cell-based
[1] = target: T1, TRPC5 (Homo sapiens, UniProt Q9UL62); experiment: FIG. 4 TRPC5 overexpressing cells, fura, OAG in the presence of Ca2+; details: TRPC5 O/E cells, N=4
T1 construct: expressed in transfected cells; host or cells: HEK293 (transient transfection)
T1 sequence (Q9UL62 1-973): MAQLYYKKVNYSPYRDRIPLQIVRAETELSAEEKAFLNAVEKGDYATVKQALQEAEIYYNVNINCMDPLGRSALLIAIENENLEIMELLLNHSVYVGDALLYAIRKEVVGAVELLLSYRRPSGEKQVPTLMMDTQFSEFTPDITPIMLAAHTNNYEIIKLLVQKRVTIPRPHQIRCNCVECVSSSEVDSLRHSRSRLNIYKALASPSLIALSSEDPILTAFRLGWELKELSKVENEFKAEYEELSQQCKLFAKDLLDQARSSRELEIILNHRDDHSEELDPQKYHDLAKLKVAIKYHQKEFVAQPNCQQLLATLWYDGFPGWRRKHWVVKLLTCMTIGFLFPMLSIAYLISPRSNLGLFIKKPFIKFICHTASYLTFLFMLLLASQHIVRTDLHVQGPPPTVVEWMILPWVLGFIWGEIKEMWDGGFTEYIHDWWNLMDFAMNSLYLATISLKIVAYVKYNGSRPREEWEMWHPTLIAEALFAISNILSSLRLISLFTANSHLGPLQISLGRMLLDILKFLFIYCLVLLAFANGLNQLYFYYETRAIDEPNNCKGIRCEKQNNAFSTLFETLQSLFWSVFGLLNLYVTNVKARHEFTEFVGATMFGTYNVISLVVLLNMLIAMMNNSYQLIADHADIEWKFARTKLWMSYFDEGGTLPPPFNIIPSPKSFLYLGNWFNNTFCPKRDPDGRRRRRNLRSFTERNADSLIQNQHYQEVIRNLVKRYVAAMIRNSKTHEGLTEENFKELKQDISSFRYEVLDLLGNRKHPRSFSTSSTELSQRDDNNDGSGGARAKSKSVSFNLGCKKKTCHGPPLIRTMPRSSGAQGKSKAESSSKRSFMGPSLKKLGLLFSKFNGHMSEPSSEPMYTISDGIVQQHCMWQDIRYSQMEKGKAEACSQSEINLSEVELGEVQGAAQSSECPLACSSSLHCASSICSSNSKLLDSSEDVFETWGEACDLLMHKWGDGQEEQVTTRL
Description: The assay was done in the presence of Ca^2+. OAG (1-Oleoyl-2-acetyl-sn-glycerol) is a cell permeable DAG analog and directly activates these TRPC channels (i.e. TRPC4 and TRPC5).

[2] = test system: Mouse splenic monocytes; experiment: Osteoclast differentiation of mouse splenic monocytes; details: 21 days of culture with RANKL+m-CSF; 100 nM ELP-004
Experimental: ELP-004 blocks TNF-α-induced osteoclast differentiation. Mouse splenic monocytes were induced to differentiate into osteoclasts. Results were obtained of osteoclast cells after 21 days of culture with RANKL+m-CSF alone or with the addition of 100 nM ELP-004. […] Thus, ELP-004 inhibits osteoclastogenesis.

[3] = target: T2, TRPC6 (Homo sapiens, UniProt Q9Y210); experiment: OAG-induced Ca2+ entry in Fura2-loaded HEK293 cells expressing TRPC6; details: ELP-004 0 to 1 mM for 10 minutes before OAG, FIG. 1D, read-out: IC50, inhibition of OAG-induced Ca2+ entry
T2 construct: expressed in transfected cells
T2 sequence (Q9Y210 1-931): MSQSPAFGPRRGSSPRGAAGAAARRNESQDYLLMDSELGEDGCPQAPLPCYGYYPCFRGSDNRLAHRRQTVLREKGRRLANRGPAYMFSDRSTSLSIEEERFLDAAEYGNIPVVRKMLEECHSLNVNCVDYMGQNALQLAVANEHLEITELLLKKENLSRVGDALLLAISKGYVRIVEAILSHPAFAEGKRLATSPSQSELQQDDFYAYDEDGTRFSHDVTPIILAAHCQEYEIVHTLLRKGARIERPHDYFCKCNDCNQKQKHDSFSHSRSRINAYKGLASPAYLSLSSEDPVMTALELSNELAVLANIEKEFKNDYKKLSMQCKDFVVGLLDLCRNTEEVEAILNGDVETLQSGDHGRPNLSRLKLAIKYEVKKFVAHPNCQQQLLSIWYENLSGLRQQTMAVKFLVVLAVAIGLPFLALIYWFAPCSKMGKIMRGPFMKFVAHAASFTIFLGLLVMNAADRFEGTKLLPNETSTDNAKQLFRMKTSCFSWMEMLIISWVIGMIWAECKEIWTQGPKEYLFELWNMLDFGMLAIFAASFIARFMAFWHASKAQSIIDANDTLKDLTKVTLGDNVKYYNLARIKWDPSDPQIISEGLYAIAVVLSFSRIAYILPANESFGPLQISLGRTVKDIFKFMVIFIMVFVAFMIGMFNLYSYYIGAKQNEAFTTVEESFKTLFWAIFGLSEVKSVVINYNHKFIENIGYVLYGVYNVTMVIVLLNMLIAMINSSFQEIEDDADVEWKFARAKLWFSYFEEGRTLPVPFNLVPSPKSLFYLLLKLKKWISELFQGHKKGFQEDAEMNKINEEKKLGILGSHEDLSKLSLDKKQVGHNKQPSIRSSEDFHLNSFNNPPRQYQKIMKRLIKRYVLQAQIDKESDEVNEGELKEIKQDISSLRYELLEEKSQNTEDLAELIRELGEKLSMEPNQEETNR
Experimental: Inhibition of DAG-mediated TRPC activation. To determine if ELP-004 (N-MeDCPA) inhibits DAG-induced TRPC activation, HEK293 cells expressing TRPC3, TRPC6 or TRPC7 were loaded with Fura2 and incubated with ELP-004 (0 to 1 mM) for 10 minutes prior to challenging with 1-Oleoyl-2-acetyl-sn-glycerol (OAG), a membrane permeable form of diacylglycerol.
Cell Culture—HEK293 cells were grown in DMEM with 4.5 g/L glucose supplemented with 10% FBS and 1% Gentamycin (Full DMEM media; Thermo-Fisher Scientific, Waltham, MA) at 37° C. and 5% CO2. […]
TRPC activity assay—Cells grown on glass coverslips were incubated in a cation-safe buffer (107 mM NaCl, 7.2 mM KCl, 1.2 mM MgCl2, 11.5 mM Glucose, 20 mM HEPES-NaOH, 1 mM CaCl2), pH 7.2) and loaded with Fura2-acetoxymethylester (Fura2-AM; 2 μM) for 30 min at 24° C. as previously described^10,11. […] Ca^2+/Sr^2+ measurements were taken using a Leica DMI 6000B fluorescence microscope controlled by Slidebook software (Intelligent Imaging Innovations, Denver, CO). Fluorescence emission at 505 nm was monitored in response to excitation at alternating 340 nm and 380 nm wavelengths at a frequency of 0.67 Hz; intracellular Ca^2+ measurements are shown at 340/380 nm ratios obtained from groups of 35-45 single cells.

## CCC(=O)N(C)c1ccc(Cl)c(Cl)c1 [ELP-004, N-(3,4-dichlorophenyl)-N-methylpropanamide]
[1]
  maximal inhibition of TRPC5 against the >50% threshold: does not reach the threshold of >50% inhibition
[1]; OAG, Ca2+ present
  IC50: 11 nM
[2]
  development of multinucleated osteoclasts: inhibited development of multinucleated osteoclasts
[3]
  IC50: 1000 to 2000 nM

Reference: patent publication US20240058283A1, “THE MODE OF ACTION OF N-MeDCPA ON TRPC CHANNELS” (West Virginia University Board of Governors on Behalf of …, priority 2022, published 2024)
